Data as given in US12209102B2, “Heterocyclic compounds and uses thereof” (Kumquat Biosciences Inc., priority 2022, dated 2025).

What was measured:
K-Ras G12D = target: T1, K-Ras G12D (Homo sapiens, UniProt P01116, G12D); experiment: HTRF resonance energy transfer assay, K-Ras G12D / SOS1 interaction; type: biochemical; details: HTRF assay of Example 5; read-out: IC50 against K-Ras G12D
T1 construct: made in house; host or cells: E. coli BL21 (DE3)
Procedure, shortened: (§1)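 GST-tagged K-Ras (WT or mutant) bound to anti-GST-Eu donor was mixed with His-hSOS1 bound to anti-6His-XL665 acceptor in ~5 mM HEPES pH 7.4, 150 mM NaCl, 1 mM DTT, 0.05% BSA, 0.0025% Igepal. HTRF (ex 337, em 620/665 nm) was read after ~10 min or longer. IC50 came from the 665/620 ratio over duplicates from 10 μM to 0.01 μM.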

K-Ras G12S = target: T2, K-Ras G12S (Homo sapiens, UniProt P01116, G12S); experiment: HTRF resonance energy transfer assay, K-Ras G12S / SOS1 interaction; type: biochemical; details: HTRF assay of Example 5; read-out: IC50 against K-Ras G12S
T2 construct: made in house; host or cells: E. coli BL21 (DE3)
T2 sequence (P01116 1-188 isoform P01116-2 G12S): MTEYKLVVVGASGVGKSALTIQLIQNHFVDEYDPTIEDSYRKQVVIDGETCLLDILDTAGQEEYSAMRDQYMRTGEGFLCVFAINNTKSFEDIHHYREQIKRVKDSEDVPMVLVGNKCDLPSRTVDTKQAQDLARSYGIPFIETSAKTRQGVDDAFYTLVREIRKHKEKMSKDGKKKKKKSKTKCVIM
Procedure, shortened: as §1

K-Ras G12V = target: T3, K-Ras G12V (Homo sapiens, UniProt P01116, G12V); experiment: HTRF resonance energy transfer assay, K-Ras G12V / SOS1 interaction; type: biochemical; details: HTRF assay of Example 5; read-out: IC50 against K-Ras G12V
T3 construct: made in house; host or cells: E. coli BL21 (DE3)
T3 sequence (P01116 1-188 isoform P01116-2 G12V): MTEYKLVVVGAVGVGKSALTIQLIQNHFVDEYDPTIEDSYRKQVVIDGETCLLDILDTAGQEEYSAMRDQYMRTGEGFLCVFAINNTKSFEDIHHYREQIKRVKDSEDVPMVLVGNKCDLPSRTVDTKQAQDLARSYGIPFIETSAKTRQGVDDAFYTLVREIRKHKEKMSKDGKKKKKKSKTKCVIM
Procedure, shortened: as §1

K-Ras WT = target: T4, K-Ras WT (Homo sapiens, UniProt P01116); experiment: HTRF resonance energy transfer assay, K-Ras WT / SOS1 interaction; type: biochemical; details: HTRF assay of Example 5; read-out: IC50 against K-Ras WT
T4 construct: made in house; host or cells: E. coli BL21 (DE3)
T4 sequence (P01116 1-188 isoform P01116-2): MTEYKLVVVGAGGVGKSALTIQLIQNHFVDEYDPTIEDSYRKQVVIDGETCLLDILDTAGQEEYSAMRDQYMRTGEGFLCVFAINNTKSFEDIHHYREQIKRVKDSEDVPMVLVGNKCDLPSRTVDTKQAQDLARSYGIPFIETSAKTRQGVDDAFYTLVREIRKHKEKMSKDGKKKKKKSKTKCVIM
Procedure, shortened: as §1

GP2D cells = experiment: Ras cellular assay, growth of cells with K-Ras G12D mutation (CellTiter-Glo); type: cell-based; details: cell growth, Example 9, G12D mutation, read-out: IC50 against GP2D cells
SW620 cells = experiment: Ras cellular assay, growth of cells with K-Ras G12V mutation (CellTiter-Glo); type: cell-based; details: Homo sapiens, SW-620; cell growth, Example 9, G12V mutation; read-out: IC50 against SW620 cells
Procedure, shortened: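 SW620 (K-Ras G12V) cells, e.g. 800/well in RPMI-1640 with 10% heat-inactivated FBS on standard or ultra-low attachment plates, were dosed the day after plating with e.g. a 10-point 3-fold series. Viability by CellTiter-Glo luminescence about 6 days later; IC50 from four-parameter fit.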

T1 sequence (P01116 1-188 isoform P01116-2 G12D): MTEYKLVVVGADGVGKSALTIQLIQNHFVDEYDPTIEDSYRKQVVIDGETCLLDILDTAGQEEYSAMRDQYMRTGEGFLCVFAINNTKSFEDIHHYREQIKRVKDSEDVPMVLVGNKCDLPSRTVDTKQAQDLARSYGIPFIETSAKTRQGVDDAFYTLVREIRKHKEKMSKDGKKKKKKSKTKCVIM

Compound	IC50 (K-Ras G12D) [µM]	IC50 (K-Ras G12S) [µM]	IC50 (K-Ras G12V) [µM]	IC50 (K-Ras WT) [µM]	IC50 (GP2D cells) [µM]	IC50 (SW620 cells) [µM]
N#Cc1c(N)sc2c(F)ccc(-c3c(Cl)c4c5c(nc(OC[C@@]67CCCN6C[C@H](F)C7)nc5c3F)N(CC(F)F)[C@@H](C(F)(F)F)CO4)c12 [Compound 672, 2-amino-4-((R)-8-chloro-4-(2,2-difluoroethyl)-10-fluoro-2-(((2R,7aS)-2-fluorotetrahydro-1H-pyrrolizin-7a(5H)-yl)methoxy)-5-(trifluoromethyl)-5,6-dihydro-4H-[1,4]oxazepino[5,6,7-de]quinazolin-9-yl)-7-fluorobenzo[b]thiophene-3-carbonitrile]	< 0.1	< 0.1	< 0.1	< 0.1	< 0.5	< 5
N#Cc1c(N)sc2c(F)ccc(-c3c(Cl)c4c5c(nc(OC[C@@]67CCCN6C[C@H](F)C7)nc5c3F)N(CC(F)F)[C@H](C3(C#N)CC3)CO4)c12 [Compound 722, 2-amino-4-((R)-8-chloro-5-(1-cyanocyclopropyl)-4-(2,2-difluoroethyl)-10-fluoro-2-(((2R,7aS)-2-fluorotetrahydro-1H-pyrrolizin-7a(5H)-yl)methoxy)-5,6-dihydro-4H-[1,4]oxazepino[5,6,7-de]quinazolin-9-yl)-7-fluorobenzo[b]thiophene-3-carbonitrile]	< 0.1	< 0.1	< 0.1	< 0.1	< 0.5	< 5
C[C@H]1C(C(F)F)Oc2c(Cl)c(-c3ccc(F)c4sc(N)c(C#N)c34)c(F)c3nc(OC[C@@]45CCCN4C[C@H](F)C5)nc(c23)N1CC(F)F (stereo partly drawn) [Compound 723, 2-amino-4-((5S)-8-chloro-4-(2,2-difluoroethyl)-6-(difluoromethyl)-10-fluoro-2-(((2R,7aS)-2-fluorotetrahydro-1H-pyrrolizin-7a(5H)-yl)methoxy)-5-methyl-5,6-dihydro-4H-[1,4]oxazepino[5,6,7-de]quinazolin-9-yl)-7-fluorobenzo[b]thiophene-3-carbonitrile]	< 0.1	< 0.1	< 0.1	< 0.1	< 0.5	< 5
CC(O)C1COc2c(Cl)c(-c3ccc(F)c4sc(N)c(C#N)c34)c(F)c3nc(OC[C@@]45CCCN4C[C@H](F)C5)nc(c23)N1CCN(C)C (stereo partly drawn) [Compound 745, 2-amino-4-(8-chloro-4-(2-(dimethylamino)ethyl)-10-fluoro-2-(((2R,7aS)-2-fluorotetrahydro-1H-pyrrolizin-7a(5H)-yl)methoxy)-5-(1-hydroxyethyl)-5,6-dihydro-4H-[1,4]oxazepino[5,6,7-de]quinazolin-9-yl)-7-fluorobenzo[b]thiophene-3-carbonitrile]	< 0.1	< 0.1	< 0.1	< 0.1	< 0.5	< 5
N#Cc1c(N)sc2c(F)ccc(-c3c(Cl)c4c5c(nc(OC[C@@]67CCCN6C[C@H](F)C7)nc5c3F)N(CC(F)F)CCO4)c12 [Compound 748, 2-amino-4-(8-chloro-4-(2,2-difluoroethyl)-10-fluoro-2-(((2R,7aS)-2-fluorotetrahydro-1H-pyrrolizin-7a(5H)-yl)methoxy)-5,6-dihydro-4H-[1,4]oxazepino[5,6,7-de]quinazolin-9-yl)-7-fluorobenzo[b]thiophene-3-carbonitrile]	< 0.1	< 0.1	< 0.1	< 0.1	< 0.5	< 5
C[C@H](O)[C@H]1COc2c(Cl)c(-c3ccc(F)c4sc(N)c(C#N)c34)c(F)c3nc(OC[C@@]45CCCN4C[C@H](F)C5)nc(c23)N1 [Compound 775, 2-amino-4-((5R)-8-chloro-10-fluoro-2-(((2R,7aS)-2-fluorotetrahydro-1H-pyrrolizin-7a(5H)-yl)methoxy)-5-((S)-1-hydroxyethyl)-5,6-dihydro-4H-[1,4]oxazepino[5,6,7-de]quinazolin-9-yl)-7-fluorobenzo[b]thiophene-3-carbonitrile]	< 0.1	< 0.1	< 0.1	< 0.1	< 0.5	< 5
N#Cc1c(N)sc2c(F)ccc(-c3c(Cl)c4c5c(nc(OC[C@@]67CCCN6C[C@H](F)C7)nc5c3F)N(C3CCCCC(O)C3)CCO4)c12 (stereo partly drawn) [Compound 795, 2-amino-4-(8-chloro-10-fluoro-2-(((2R,7aS)-2-fluorotetrahydro-1H-pyrrolizin-7a(5H)-yl)methoxy)-4-(3-hydroxycycloheptyl)-5,6-dihydro-4H-[1,4]oxazepino[5,6,7-de]quinazolin-9-yl)-7-fluorobenzo[b]thiophene-3-carbonitrile]	< 0.1	< 0.1	< 0.1	< 0.1	< 0.5	< 5
CC(C)(O)[C@H]1COc2c(Cl)c(-c3ccc(F)c4sc(N)c(C#N)c34)c(F)c3nc(OC[C@@]45CCCN4C[C@H](F)C5)nc(c23)N1 [Compound 815, 2-amino-4-((5R)-8-chloro-10-fluoro-2-(((2R,7aS)-2-fluorotetrahydro-1H-pyrrolizin-7a(5H)-yl)methoxy)-5-(2-hydroxypropan-2-yl)-5,6-dihydro-4H-[1,4]oxazepino[5,6,7-de]quinazolin-9-yl)-7-fluorobenzo[b]thiophene-3-carbonitrile]	< 0.1	< 0.1	< 0.1	< 0.1	< 0.5	< 5
N#Cc1c(N)sc2c(F)ccc(-c3c(Cl)c4c5c(nc(OC[C@@]67CCCN6C[C@H](F)C7)nc5c3F)N(CC3CC3C#N)[C@@H](C3(O)CC3)CO4)c12 (stereo partly drawn) [Compound 876, 2-amino-4-((5R)-8-chloro-4-((2-cyanocyclopropyl)methyl)-10-fluoro-2-(((2R,7aS)-2-fluorotetrahydro-1H-pyrrolizin-7a(5H)-yl)methoxy)-5-(1-hydroxycyclopropyl)-5,6-dihydro-4H-[1,4]oxazepino[5,6,7-de]quinazolin-9-yl)-7-fluorobenzo[b]thiophene-3-carbonitrile]	< 0.1	< 0.1	< 0.1	< 0.1	< 0.5	< 5
CN(C)CCN1c2nc(OC[C@@]34CCCN3C[C@H](F)C4)nc3c(F)c(-c4ccc(F)c5sc(N)c(C#N)c45)c(Cl)c(c23)OCC1CC#N (stereo partly drawn) [Compound 885, 2-amino-4-(8-chloro-5-(cyanomethyl)-4-(2-(dimethylamino)ethyl)-10-fluoro-2-(((2R,7aS)-2-fluorotetrahydro-1H-pyrrolizin-7a(5H)-yl)methoxy)-5,6-dihydro-4H-[1,4]oxazepino[5,6,7-de]quinazolin-9-yl)-7-fluorobenzo[b]thiophene-3-carbonitrile]	< 0.1	< 0.1	< 0.1	< 0.1	< 0.5	< 5
CN(C)CCCN1c2nc(OC[C@@]34CCCN3C[C@H](F)C4)nc3c(F)c(-c4ccc(F)c5sc(N)c(C#N)c45)c(Cl)c(c23)OCC1CC#N (stereo partly drawn) [Compound 896, 2-amino-4-(8-chloro-5-(cyanomethyl)-4-(3-(dimethylamino)propyl)-10-fluoro-2-(((2R,7aS)-2-fluorotetrahydro-1H-pyrrolizin-7a(5H)-yl)methoxy)-5,6-dihydro-4H-[1,4]oxazepino[5,6,7-de]quinazolin-9-yl)-7-fluorobenzo[b]thiophene-3-carbonitrile]	< 0.1	< 0.1	< 0.1	< 0.1	< 0.5	< 5
